Test results: article PMC7693775, “AGTR1 Is Overexpressed in Neuroendocrine Neoplasms, Regulates Secretion and May Potentially Serve as a Target for Molecular Imaging and Therapy” (Cancers, 2020)
Like-named read-outs stand apart in the source and are kept apart here. One block for each molecule: values may come before it.

Legend:
BON cells [1] = assay: serotonin ELISA of cell supernatants; type: cell-based, human; details: 1 µM, 6 h
Experimental: (§1) If not indicated otherwise, cell culture reagents were obtained from Biochrom AG (Berlin, Germany). The human NEN cell lines BON and QGP-1 (pancreatic), LCC-18 (colonic), H727 and UMC-11 (pulmonary) and all other cell lines were cultured in RPMI 1640 supplemented with 10 % fetal calf serum in a humidified atmosphere at 37 °C and 5% CO2. BON cells were a kind gift of Courtney Townsend (University of Texas, Galveston, TX, USA). LCC-18 were kindly donated by Kjell Ö berg (University of Uppsala, Uppsala, Sweden) and KRJ-1 by Dr. Irvin Modlin (Yale University, New Haven, CT, USA). QGP-1 were obtained from the Japanese Collection of Research Bioresources.
(§2) All other cell lines were obtained from Cell Line Services (Heidelberg, Germany), DSMZ (Braunschweig, Germany) or ATCC (Manassas, VA, USA). Cells were cultured for no more than 20 passages. Mycoplasma testing was done at least every six months. Cell lines were authenticated by STR analysis at DSMZ (Braunschweig, Germany). Due to the lack of reference profiles for BON and LCC-18, their respective STR profile was characterized as unique and not contamina ted with any […]
(§3) Table 1. STR profiling data for BON and LCC -18 cells.
(§4) Experiments in 96-well format were performed as previously described (18). […]

BON cells [2] = type: cell-based, human; details: for effect on ATII-induced calcium signal: BON cells, preincubation 15-30 min before ATII (valsartan, PD123319: 1 µM)
AGTR1 [3] = molecular target: T1, AGTR1 (Homo sapiens, UniProt P30556); assay: competition binding with 125I-ATII, BON cells
T1 sequence (P30556 1-359): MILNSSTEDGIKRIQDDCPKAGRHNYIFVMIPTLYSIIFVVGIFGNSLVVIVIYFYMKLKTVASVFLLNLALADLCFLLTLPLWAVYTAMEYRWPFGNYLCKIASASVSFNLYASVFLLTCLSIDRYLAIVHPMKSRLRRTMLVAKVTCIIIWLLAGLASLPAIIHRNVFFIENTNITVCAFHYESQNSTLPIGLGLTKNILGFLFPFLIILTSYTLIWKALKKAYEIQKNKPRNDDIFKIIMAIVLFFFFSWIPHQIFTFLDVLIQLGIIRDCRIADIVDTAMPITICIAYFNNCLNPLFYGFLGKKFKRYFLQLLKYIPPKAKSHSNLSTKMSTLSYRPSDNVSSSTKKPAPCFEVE
Experimental: (§5) The Boc-protected ITCC dye (69 mg) was dissolved in DCM (3.0 mL) and subjected to deprotection by addition of TFA (300 µL). The reaction mixture was stirred for 2 h, the solvent removed under reduced pressure and the mixture codistilled with DCM several times to remove […]
(§6) TFA. […] MS (ESI): C39H51N4NaO7S2
(§7) 2.2 eq.) and DIPEA (7.2 µL, 42 µmol, 4.7 eq.) and the reaction mixture stirred for 1 h. The deprotected ITCC dye (8.0 mg, 9.0 µmol, 1.0 eq.) was dissolved in DMF (125 µL) with DIPEA (3.6 µL, 21 µmol, 2.3 eq.) and added to the reaction mixture which was stirred for additional 17 h. The mixture was precipitated from Et2O and the precipitate purified via flash chromatography (DCM/MeOH) to afford […]
(§8) Peptide iodination was performed as previously described [ 1 ].
(§9) (Sigma, Deisenhofen, Germany) were iodinated with 1 mCi carrier -free Na 125 I (NEZ033L010MC, Perkin Elmer, Waltham, MA, USA) and purified by HPLC (Analyt ic HPLC 1200 Series, Agilent, Santa Clara, CA, USA; see Figure S1 in supplementary material). The method for the competitive binding assay was described in detail before. For saturation experiments, binding buffer was prepared […]
(§10) of additional unlabeled peptide (total binding). Non -specific binding was subtracted from total binding to obtain spec ific binding. […]

[4] = tested on: AGTR1-positive BON tumors; assay: in vivo near-infrared fluorescent imaging, xenograft; set-up: species or system mice
Experimental: seeded with 15,000/50,000 cells per well.
(§11) free medium for 10 min at room tem perature. A buffer baseline was obtained on the dynamic mass
(§12) used and plotted with GraphPad Prism 5.04.
(§13) For in vivo receptor targeting, the near -infrared fluorescent
(§14) in 100 µ L 0.9 % NaCl per animal).
(§15) fluorescence intensities.
(§16) animal research authorities.
First Linear Peptidic Urotensin -II Receptor Agonist. J. Med. Chem. 2016 , 59, 10100–10112,

[5] = tested on: receptor negative QGP-1 tumors; details: 1 nmol i.v., NIRF imaging
Experimental: as §11, §12, §13, §14, §15, §16
J. Med. Chem. 2016 , 59, 10100–10112,

AGTR1 [6] = molecular target: T1, AGTR1; assay: competition binding with 125I-ATII, H727 cells
Experimental: as §5, §6, §7, §8, §9, §10

H727 cells [7] = assay: intracellular calcium mobilization assay; type: cell-based, human; details: preincubation 15-30 min before ATII (valsartan, PD123319: 1 µM)
Experimental: as §1, §2, §3, §4

[8] = molecular target: T2, ATII receptor (AGTR1, AGTR2) (Homo sapiens, UniProt P30556); assay: in vitro receptor autoradiography of tissue cryosections; type: binding; details: 1 µM competitor
T2 construct: Consecutive cryosections of each tissue were incubated with the radioligand in the absence or presence of an excess of non-labeled ATII; from tissue; host or cells: flash-frozen cryosections of patient pancreatic and small-intestinal NEN and of control pancreas, small intestine and liver
T2 sequence (P30556 1-359): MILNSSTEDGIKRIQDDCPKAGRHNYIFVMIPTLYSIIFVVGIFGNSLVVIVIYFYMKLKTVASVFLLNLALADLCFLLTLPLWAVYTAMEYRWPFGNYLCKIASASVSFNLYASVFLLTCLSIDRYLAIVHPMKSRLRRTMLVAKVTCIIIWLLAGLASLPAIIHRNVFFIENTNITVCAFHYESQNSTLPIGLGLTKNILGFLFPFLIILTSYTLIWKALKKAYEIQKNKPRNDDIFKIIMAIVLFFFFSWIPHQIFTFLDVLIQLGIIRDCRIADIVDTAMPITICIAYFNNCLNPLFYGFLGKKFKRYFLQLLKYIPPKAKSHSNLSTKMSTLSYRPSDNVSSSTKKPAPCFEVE

[9] = molecular target: T3, ATII receptor (AGTR1, AGTR2) (Homo sapiens, UniProt P50052); assay: as above; type: binding; details: normal pancreas; 1 µM competitor
T3 construct: Consecutive cryosections of each tissue were incubated with the radioligand in the absence or presence of an excess of non-labeled ATII; from tissue; host or cells: flash-frozen cryosections of patient pancreatic and small-intestinal NEN and of control pancreas, small intestine and liver
T3 sequence (P50052 1-363): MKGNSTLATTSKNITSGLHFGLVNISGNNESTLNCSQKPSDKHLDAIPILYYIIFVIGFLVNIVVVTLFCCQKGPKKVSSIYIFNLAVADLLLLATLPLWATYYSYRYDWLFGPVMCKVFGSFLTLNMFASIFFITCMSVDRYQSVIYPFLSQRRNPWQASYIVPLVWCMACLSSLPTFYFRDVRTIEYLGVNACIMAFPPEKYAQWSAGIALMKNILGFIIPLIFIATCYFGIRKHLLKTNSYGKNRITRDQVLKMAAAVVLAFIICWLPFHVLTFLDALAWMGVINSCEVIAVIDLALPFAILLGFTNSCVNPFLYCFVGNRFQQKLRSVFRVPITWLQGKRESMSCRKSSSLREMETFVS

BON cells [10] = assay: chromogranin A ELISA of cell supernatants; type: cell-based, human; details: 10 µM preincubation 15 min, 100 nM ATII
Experimental: as §1, §2, §3, §4

BON cells [11] = assay: metabolic activity (AlamarBlue); type: cell-based, human; details: 96 h, different concentrations
Experimental: (§17) filter paper and measured in a gamma counter. Additional tissue sections were stained with hematoxylin and eosin for comparison with the corresponding autoradiograms.
as §1, with “Bioresources. […]” for “Bioresources.”
(§18) Cells were seeded in quadruplicates at a density of 5,000 cells in 50 µ L medium per well in 96 well plates, grown overnight and treated with the indicated ligand concentrations (on top of the well, final volume 100 µ L). After 96 h, metabolic activity was determined by addition of 100 µ L medium containing AlamarBlue™ redox indicator (Thermo Fisher, Waltham, MA, US) to each well. After 3 –4 h, the resulting fluorescence was measured with an EnVision Multilabel Plate Reader (Perkin Elmer, Waltham, USA). […]

H727 cells [12] = assay: metabolic activity (AlamarBlue); type: cell-based, human; details: 96 h, different concentrations
Experimental: as §17
as §1, with “Bioresources. […]” for “Bioresources.”
as §18

AGTR1 [13] = molecular target: AGTR1; set-up: method as in PMID 25313325; details: read-out: published Ki; cited from earlier work
[14] = molecular target: angiotensin II (Homo sapiens), P01019; assay: competition
[15] = molecular target: angiotensin II (Homo sapiens), P01019; assay: competition; remark: listed apart in the source
[16] = molecular target: 125I-angiotensin II (Homo sapiens), P01019; assay: radioligand
Sequence of 125I-angiotensin II (Homo sapiens), P01019 (P01019 whole entry, looked up): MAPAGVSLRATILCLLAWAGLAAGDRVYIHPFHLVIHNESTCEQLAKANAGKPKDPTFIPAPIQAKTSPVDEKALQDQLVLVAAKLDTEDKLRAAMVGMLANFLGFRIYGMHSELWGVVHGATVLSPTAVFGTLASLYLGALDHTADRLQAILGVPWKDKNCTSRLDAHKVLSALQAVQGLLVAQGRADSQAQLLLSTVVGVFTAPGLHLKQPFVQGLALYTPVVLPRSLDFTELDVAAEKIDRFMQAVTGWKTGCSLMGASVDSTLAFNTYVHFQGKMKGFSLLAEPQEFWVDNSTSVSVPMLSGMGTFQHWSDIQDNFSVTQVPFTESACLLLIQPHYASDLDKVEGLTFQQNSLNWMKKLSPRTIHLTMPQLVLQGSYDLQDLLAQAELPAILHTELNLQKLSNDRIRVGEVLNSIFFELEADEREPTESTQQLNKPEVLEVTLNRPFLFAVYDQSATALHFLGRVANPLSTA

Sequence of angiotensin II (Homo sapiens), P01019 (P01019 whole entry, looked up): as above

Molecule: CCOc1nc2cccc(C(=O)O)c2n1Cc1ccc(-c2ccccc2-c2nc(=O)o[nH]2)cc1 [azilsartan]
serotonin (5HT) secretion (BON cells [1]): did not modify

EC50 (BON cells [2]; 24 h): 4.9 ± 5.2 nM
Molecule: CC[C@H](C)[C@H](NC(=O)[C@H](Cc1ccc(O)cc1)NC(=O)[C@@H](NC(=O)[C@H](CCCNC(=N)N)NC(=O)[C@@H](N)CC(=O)O)C(C)C)C(=O)N[C@@H](Cc1c[nH]cn1)C(=O)N1CCC[C@H]1C(=O)N[C@@H](Cc1ccccc1)C(=O)O [ATII, angiotensin II]

Molecule: CC(C)[C@H](NC(=O)[C@H](CCCNC(=N)N)NC(=O)CN(C)C(=O)CCC(=O)NCCCOCCOCCOCCCNC(=O)c1ccc2c(c1)C(C)(C)C(=CC=CC=CC=CC1=[N+](CCCCS(=O)(=O)[O-])c3ccccc3C1(C)C)N2CCCCS(=O)(=O)O)C(=O)N[C@@H](Cc1ccc(O)cc1)C(=O)N[C@H](C(=O)N[C@@H](Cc1c[nH]cn1)C(=O)N1CCC[C@H]1C(=O)N[C@@H](C)C(=O)O)C(C)C [saralasin–ITCC]
decrease of affinity by ITCC versus published Ki of saralasin (AGTR1 [3]): 250 fold
accumulation in AGTR1-positive xenograft tumors ([4]; 1 nmol i.v., NIRF imaging): selective accumulation
ex vivo organ imaging ([4]; 6 hours after injection): accumulation in kidneys and liver
uptake in QGP-1 tumors [5]: Low non-significant uptake

Molecule: Cc1cc(Cn2cnc3c2C[C@@H](C(=O)O)N(C(=O)C(c2ccccc2)c2ccccc2)C3)ccc1N(C)C [PD123319]
effect on ATII-induced calcium signal (BON cells [2]): did not influence
displacement of 125I-ATII binding (AGTR1 [3]): not
displacement of 125I-ATII binding (AGTR1 [6]): not
effect on ATII-induced calcium signal (H727 cells [7]): did not influence
displacement of 125I-ATII binding ([8]; pancreatic NEN tissues #1, #4, #6, #8): not
displacement of 125I-ATII binding ([8]; small-intestinal NEN tissues): unable to compete
displacement of 125I-ATII binding [9]: displaced

Molecule: CCCCC(=O)N(Cc1ccc(-c2ccccc2-c2nnn[nH]2)cc1)[C@H](C(=O)O)C(C)C [valsartan]
effect on ATII-induced calcium signal (BON cells [2]): significantly diminish
effect on ATII-induced calcium signal (H727 cells [7]): significantly diminish
effect on ATII-stimulated CgA secretion (BON cells [10]): diminished
serotonin (5HT) secretion (BON cells [1]): did not modify
metabolic activity (BON cells [11]): no change
metabolic activity (H727 cells [12]): no change

Molecule: saralasin
Ki (AGTR1 [13]): 1 nM

Ki [14]: 0.1 nM
Ki [15]: 0.2 nM
Kd [16]: 0.6 nM
B1: Angiotensin II receptor type 1, P30556 (protein)
chain: MILNSSTEDGIKRIQDDCPKAGRHNYIFVMIPTLYSIIFVVGIFGNSLVVIVIYFYMKLKTVASVFLLNLALADLCFLLTLPLWAVYTAMEYRWPFGNYLCKIASASVSFNLYASVFLLTCLSIDRYLAIVHPMKSRLRRTMLVAKVTCIIIWLLAGLASLPAIIHRNVFFIENTNITVCAFHYESQNSTLPIGLGLTKNILGFLFPFLIILTSYTLIWKALKKAYEIQKNKPRNDDIFKIIMAIVLFFFFSWIPHQIFTFLDVLIQLGIIRDCRIADIVDTAMPITICIAYFNNCLNPLFYGFLGKKFKRYFLQLLKYIPPKAKSHSNLSTKMSTLSYRPSDNVSSSTKKPAPCFEVE
